Results taken from paper PMC5543128 (Scientific Reports, 2017).
Entries after “also recorded” stand apart in the source; their conditions may differ. Where a SMILES comes first, the peptide text is derived from it. Bridges are numbered along the chain shown (N, C = ends). [ ]: non-standard residue; d: D form. Hyp = O=C(O)[C@@H]1C[C@@H](O)CN1

Experiments:
[1] = test system: isolated mouse phrenic-hemidiaphragm nerve-muscle preparations; conditions: for IC50: pH 7.4
[2] = test system: mice; conditions: mouse, in vivo
[3] = test system: mice; conditions: mouse, in vivo, ip
[4] = target: Torpedo muscle-type nicotinic acetylcholine receptors (nAChRs) (Tetronarce californica, UniProt P02710+P02714+P02718); type: binding
Chain of Torpedo muscle-type nicotinic acetylcholine receptors (nAChRs) (P02710 whole entry, looked up): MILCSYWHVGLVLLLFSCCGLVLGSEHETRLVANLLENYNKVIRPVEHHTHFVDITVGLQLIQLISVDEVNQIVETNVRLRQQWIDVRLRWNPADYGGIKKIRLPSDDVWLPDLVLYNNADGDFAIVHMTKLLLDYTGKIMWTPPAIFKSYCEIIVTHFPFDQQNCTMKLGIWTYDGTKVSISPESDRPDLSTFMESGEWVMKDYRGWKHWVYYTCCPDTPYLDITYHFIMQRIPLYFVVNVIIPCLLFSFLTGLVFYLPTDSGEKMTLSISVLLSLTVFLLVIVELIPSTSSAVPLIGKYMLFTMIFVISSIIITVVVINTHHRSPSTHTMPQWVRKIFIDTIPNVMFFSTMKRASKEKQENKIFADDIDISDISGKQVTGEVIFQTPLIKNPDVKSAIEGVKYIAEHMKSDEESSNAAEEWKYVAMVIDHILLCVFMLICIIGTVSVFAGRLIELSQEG
Chain of Torpedo muscle-type nicotinic acetylcholine receptors (nAChRs) (P02714 whole entry, looked up): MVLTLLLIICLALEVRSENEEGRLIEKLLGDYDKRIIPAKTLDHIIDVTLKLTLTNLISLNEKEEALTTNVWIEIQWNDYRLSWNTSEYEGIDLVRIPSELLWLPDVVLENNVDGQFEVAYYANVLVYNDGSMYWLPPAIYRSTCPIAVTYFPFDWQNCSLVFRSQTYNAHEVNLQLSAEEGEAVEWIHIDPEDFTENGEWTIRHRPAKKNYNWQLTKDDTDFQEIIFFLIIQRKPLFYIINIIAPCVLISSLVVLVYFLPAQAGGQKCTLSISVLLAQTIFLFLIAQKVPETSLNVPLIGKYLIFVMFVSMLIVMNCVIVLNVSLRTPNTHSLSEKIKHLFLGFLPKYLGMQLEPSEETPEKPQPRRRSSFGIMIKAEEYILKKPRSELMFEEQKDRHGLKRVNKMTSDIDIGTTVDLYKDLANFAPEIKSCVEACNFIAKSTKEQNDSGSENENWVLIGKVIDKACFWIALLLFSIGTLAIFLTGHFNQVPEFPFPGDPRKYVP
Chain of Torpedo muscle-type nicotinic acetylcholine receptors (nAChRs) (P02718 whole entry, looked up): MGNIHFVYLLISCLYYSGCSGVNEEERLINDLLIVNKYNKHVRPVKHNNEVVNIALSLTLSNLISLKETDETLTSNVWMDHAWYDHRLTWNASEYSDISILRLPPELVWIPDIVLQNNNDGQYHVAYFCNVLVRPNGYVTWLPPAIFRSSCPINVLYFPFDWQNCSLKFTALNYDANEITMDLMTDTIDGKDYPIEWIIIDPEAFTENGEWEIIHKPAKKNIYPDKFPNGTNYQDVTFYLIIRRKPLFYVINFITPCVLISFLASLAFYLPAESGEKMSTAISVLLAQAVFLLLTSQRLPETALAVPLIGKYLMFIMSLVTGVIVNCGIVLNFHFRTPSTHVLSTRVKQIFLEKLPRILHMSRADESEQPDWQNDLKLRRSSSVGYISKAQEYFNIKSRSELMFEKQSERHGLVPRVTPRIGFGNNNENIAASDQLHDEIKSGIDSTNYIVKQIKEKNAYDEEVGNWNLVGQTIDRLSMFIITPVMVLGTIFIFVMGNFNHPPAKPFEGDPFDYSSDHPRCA

[5] = test system: hemidiaphragm muscle; parameters: species or system mouse

Compound | maximal block of contraction [1] | potency relative to αC-conotoxin PrXA [1] | IC50 [1] [nM] | mice lethality [2] [%] | time to death [2] [min] | IC50 (mice death) ([2]; ip) [µg/g] | D/T (dead/treated mice) [3] | inhibition of [^125I]-α-bungarotoxin binding [4] | inhibition of muscle contraction [1] | time to full block of muscle contraction [1] [min] | effect on contractility force under direct electrical stimulation [5]
CC[C@H](C)[C@H](NC(=O)[C@H](Cc1ccc(O)cc1)NC(=O)[C@H](Cc1c[nH]cn1)NC(=O)[C@@H]1CSSC[C@H](NC(=O)[C@@H]2CCCN2C(=O)[C@H](CCCNC(=N)N)NC(=O)[C@H](CC(C)C)NC(=O)[C@H](CC(=O)O)NC(=O)[C@@H]2CCCN2C(=O)[C@H](CCCCN)NC(=O)CNC(=O)CN)C(=O)N[C@@H](Cc2c[nH]cn2)C(=O)N2CCC[C@H]2C(=O)N2CCC[C@H]2C(=O)N1)C(=O)N1CCC[C@H]1C(=O)N[C@@H](CCCNC(=N)N)C(=O)N1CCC[C@H]1C(=O)N[C@@H](CCCCN)C(=O)N1CCC[C@H]1C(=O)N[C@@H](CCCNC(=N)N)C(=O)O [Waglerin 1] (H-GGKPDLRPCHPPCHYIPRPKPR-OH; disulfide 9-13) | full block of contraction | twofold less potent | 58 ± 2 | – | – | – | – | – | – | – | –
CC[C@H](C)[C@H](NC(=O)[C@H](Cc1ccc(O)cc1)NC(=O)[C@H](Cc1cnc[nH]1)NC(=O)[C@@H]1CSSC[C@H](NC(=O)[C@@H]2CCCN2C(=O)[C@H](CCCNC(=N)N)NC(=O)[C@H](CC(C)C)NC(=O)[C@H](CC(=O)O)NC(=O)[C@@H]2CCCN2C(=O)[C@H](CCCCN)NC(=O)CNC(=O)CN)C(=O)N[C@@H](Cc2cnc[nH]2)C(=O)N2CCC[C@H]2C(=O)N2CCC[C@H]2C(=O)N1)C(=O)N1CCC[C@H]1C(=O)N[C@@H](CCCNC(=N)N)C(=O)N1CCC[C@H]1C(=O)N[C@@H](CCCCN)C(=O)N1CCC[C@H]1C(=O)N[C@@H](CCCNC(=N)N)C(=O)O [Waglerin 1] (H-GGKPDLRPCHPPCHYIPRPKPR-OH; disulfide 9-13) | – | – | – | 100 | ≤ 4.7 ± 0.7 | 0.7 | – | – | – | – | –
CC[C@H](C)[C@H](NC(=O)CNC(=O)[C@H](Cc1ccc(O)cc1)NC(=O)[C@@H](N)[C@@H](C)O)C(=O)N[C@@H](Cc1ccc(O)cc1)C(=O)N[C@@H](CC(=O)O)C(=O)N[C@@H](C)C(=O)N[C@@H](CCCCN)C(=O)N1CCC[C@H]1C(=O)N1C[C@H](O)C[C@H]1C(=O)N[C@@H](Cc1ccccc1)C(=O)N[C@@H](CO)C(=O)N[C@H]1CSSC[C@@H](C(=O)N[C@H](C(=O)N[C@@H](CC(C)C)C(=O)N2CCC[C@H]2C(=O)N2C[C@H](O)C[C@H]2C(=O)N[C@@H](CC(N)=O)C(=O)N[C@@H](CC(C)C)C(=O)N[C@@H](CCCNC(=N)N)C(=O)N2C[C@H](O)C[C@H]2C(=O)N[C@@H](CCCCN)C(=O)N[C@@H](Cc2ccccc2)C(=O)N[C@@H](CCCCN)C(=O)N[C@@H](CCC(=O)O)C(N)=O)C(C)C)NC(=O)CNC(=O)CNC(=O)[C@H](CCCNC(=N)N)NC(=O)[C@H](CC(C)C)NC(=O)CNC(=O)[C@H](C)NC1=O [αC-conotoxin PrXA] (H-TYGIYDAKP[Hyp]FSCAGLRGGCVLP[Hyp]NLR[Hyp]KFKE-NH2; disulfide 13-20) | – | – | 23 ± 2 | – | – | – | 3/3 | fully inhibited | concentration- and time-dependent inhibition of muscle contraction | 15 | did not alter muscle contractility force; also recorded: Lack of toxin effect on direct muscle stimulation
